The text below walks through data of patent publication US20140294994A1, “PHARMACEUTICAL COMPOSITION FOR ELIMINATION OF CANCER STEM CELLS” (priority 2011, published 2014).

The subject of assay [1] is A549 cells. Nature of the assay: MTT assay (cell viability). In kind it is cell-based, human. The note with it: A549 cells, read-out: MTT assay (IC50). The source says: In addition to the commonly used cell lines (A549 and H1975), we also established several cell lines including CL83, CL141, CL152, CL25, and CL97 cell lines which were isolated from the pleural effusion of NSCLC patients at the National Taiwan University Hospital. The investigation was approved by the Institutional Review Board of the National Taiwan University Hospital. Informed consent was obtained before pleural effusion was collected.
Background: Formazan colour is commonly taken as a measure of viable cells.

Assay [2] deals with A549 cells. Nature of the assay: Clonogenic assay. In kind it is cell-based, human. The protocol:
The NSCLC cancer cell lines, A549, H1975, CL25, CL83, CL97, CL141, and CL152 were maintained in RPMI medium. Tested cells were seeded respectively in 6 well plates with 10^4 cells per well for 14 days. Each well contained 10 ml RPMI medium as cultured condition for NSCLC cells. […] Trifluoperazine and other tested drugs were added 24 hours after seeding of the cells. The medium and trifluoperazine were changed once on day 4. After the treatments, cells were washed with PBS, and the colonies were fixed with fix solution (acetic acid:methanol=1:3) and stained with 0.5% crystal violet in methanol. After removing the crystal violet carefully and rinse with tap water, the colonies were counted manually.

The next assay deals with CL141 cells. Nature of the assay: Side population analysis (Hoechst 33342, flow cytometry). In kind it is cell-based, human. The protocol: Single-cell suspensions of cells were detached from dishes with Trypsin-EDTA (Invitrogen) and suspended at 1×10^6 cells/mL in Hank's balanced salt solution (HBSS) supplemented with 3% fetal calf serum and 10 mM Hepes. […] After 90 minutes incubation, the cells were centrifuged immediately for 5 minutes at 300 g and 4° C. and resuspended in ice-cold HBSS. The cells were kept on ice to inhibit efflux of the Hoechst dye, and 1 μg/mL propidium iodide (BD) was added to discriminate dead cells. Finally, these cells were filtered through a 40 μm cell strainer (BD) to obtain single-suspension cells. Cell dual-wavelength analysis and purification were performed on a dual-laser FACS Vantage SE (BD). […] A 610 nm dichroic mirror short-pass (DMSP) was used to separate the emission wavelengths. PI-positive (dead) cells were excluded from the analysis.
(Flow cytometry measures light scatter and fluorescence of single cells or particles in a stream.)

A further assay deals with CL97 spheroids. The experiment in a line: Cisplatin response of spheroids versus parental cells (IC50, viability, caspase-3 activity). In kind it is cell-based, human. The source says:
(§1) We selected three gefitinib-resistant NSCLC cell lines, CL141 (wild type EGFR), CL83 (wild type EGFR) and CL97 (EGFR-G719A+T790M acquired resistant mutation) to determine if trifluoperazine could sensitize these cells towards chemotherapeutic agents.

The subject of the next assay is CL141 spheroids. The assay is described as above. The class given is cell-based, human.
From the text: as §1

The test system of the next assay is CL83 spheroids. The description is as above. In kind it is cell-based, human.
From the text: as §1

A further assay concerns CL97-L2G tumor samples. Nature of the assay: Protein profiles of tumor biopsies (Western blot). In kind it is in vivo, NOD/SCID mice. The note with it: tumor biopsies of treated mice. The protocol:
Total cell lysates were harvested from tumor biopsies of mice which received different treatments and their protein profiles were examined.
Cells were lysed in lysis buffer (50 mM Tris-HCl, pH 7.4, 5 mM MgCl2, 1% Nonidet P-40, 150 mM NaCl, 1 mM phenylmethylsulfonyl fluoride). Total protein was isolated and subjected to SDS polyacrylamide gel electrophoresis and electrotransfered onto PVDF membranes (Millipore). Primary antibodies Bax, Bak, Bcl-2, XIAP, Mcl-1, Cleaved Caspase 9, Caspase 3, […], c-Myc, CD44, cyclin D1 were obtained from Cell Signaling, Met was purchased from Santa Cruz and CD133 was from Miltenyi Biotec, and secondary antibodies for anti-mouse and anti-rabbit horseradish preoxidase (HRP)-conjugation were from Chemicon International. The protein detection was performed with enhanced chemiluminescence (ECL™) method captured by a Luminescence Imaging System (LAS-4000™, Fuji Photo Film Co., Ltd).
. […] CL97-L2G-bearing mice (both bulk lung tumor and CSC models) were imaged weekly using the IVIS 200 system (Caliper Life Sciences). Data are expressed as fold change in total photon flux/initial total photon flux and were analyzed using Living Image 1.0 software (Caliper Life Sciences). Mice were humanely sacrificed at the end of experiments and lung tumor biopsies were obtained for further analysis.
On the technique in general: A western blot detects proteins with antibodies after separation by electrophoresis.

The subject of the next assay is CL97-L2G cells. The experiment in a line: Bulk lung tumor model, bioluminescent imaging. The class given is in vivo, NOD/SCID mice. The note with it: 4 weeks, trifluoperazine 5 mg/kg/day i.p., gefitinib 150 mg/kg/day oral gavage, combination trifluoperazine 5 mg/kg/day i.p. + gefitinib 100 mg/kg/day oral. The protocol: For bulk lung tumor model, CL97-[…] cells were intravenously administered into the animals via tail vein at a concentration of 1×10^6 cells/100 μl PBS. One week post tumor injection, different treatment regimens were started. […] CL97-[…]-bearing mice (both bulk lung tumor and CSC models) were imaged weekly using the IVIS 200 system (Caliper Life Sciences). Data are expressed as fold change in total photon flux/initial total photon flux and were analyzed using Living Image 1.0 software (Caliper Life Sciences). Mice were humanely sacrificed at the end of experiments and lung tumor biopsies were obtained for further analysis.

As usually defined, the IC50 is the concentration needed to halve the response being measured.

Turning to `CC(=O)c1ccc2c(c1)N(CCCN(C)C)c1ccccc1S2` [Acepromazine], the IC50 in the assay on A549 cells [1] (Homo sapiens) is above 10 µM; in the assay on A549 cells [2] (Homo sapiens), 1 to 2.5 µM. Moreover, the Reduced side population entry in the assay on CL141 cells was “No”.

For the molecule `CN(C)CCCN1c2ccccc2Sc2ccc(Cl)cc21` [Chlorpromazine], the IC50 lay in the range of 5 to 10 µM in the assay on A549 cells [1] and 2.5 to 5 µM in the assay on A549 cells [2]. In addition, the Reduced side population result in the assay with CL141 cells is recorded as “Yes”.

With `OCCN1CCN(CCCN2c3ccccc3Sc3ccc(C(F)(F)F)cc32)CC1` [Fluphenazine], in the assay on CL141 cells, the Reduced side population entry is recorded as “No”.

Take `CN1CCN(CCCN2c3ccccc3Sc3ccc(Cl)cc32)CC1` [Prochlorperazine]: in the assay with CL141 cells, the Reduced side population result is listed as “No”.

For `CN(C)CCCN1c2ccccc2Sc2ccccc21` [Promazine], the IC50 in the assay with A549 cells [1] (Homo sapiens) is above 10 µM. Also, in the assay on CL141 cells, the Reduced side population result was “Yes”.

Regarding `CN(C)CCCN1c2ccccc2Sc2ccc(C(F)(F)F)cc21` [Triflupromazine], in the assay on A549 cells [1] (Homo sapiens), the IC50 is above 10 µM. In addition, the Reduced side population entry with CL141 cells was “Yes”.

Consider `N.N.[Cl][Pt][Cl]` [cisplatin], for which the “IC50 of spheroids compared with parental cells” value in the assay on CL97 spheroids, in the assay on CL141 spheroids and in the assay on CL83 spheroids was “significantly higher IC50” each time. Besides, the “caspase-3 activity of spheroids compared with parental cells” value was “lower caspase-3 activity” in the assay on CL97 spheroids (10 μM, 24 hours); “lower caspase-3 activity” in the assay on CL141 spheroids (10 μM, 24 hours); “lower caspase-3 activity” with CL83 spheroids (10 μM, 24 hours). Moreover, the “viability of spheroids compared with parental cells” value in the assay on CL97 spheroids (10 μM, 24 hours) is on record as “higher viability”; in the assay on CL141 spheroids (10 μM, 24 hours), “higher viability”; with CL83 spheroids (10 μM, 24 hours), “higher viability”.

Consider `COc1cc2ncnc(Nc3ccc(F)c(Cl)c3)c2cc1OCCCN1CCOCC1` [gefitinib], for which the “c-Myc and β-catenin expression in tumor samples” value with CL97-L2G tumor samples was “did not significantly influence”. In addition, the “tumor burden (fold change in bioluminescence intensity)” value in the assay with CL97-L2G cells is “not significantly different”; with CL97-L2G cells (listed as genfitnib), “no effects in suppressing tumor recurrence”.

Turning to Pherphenazine [Perphenazine], the figures for the IC50 with A549 cells [1] and in the assay with A549 cells [2] were above 10 µM and 5 to 10 µM, respectively. The Reduced side population result with CL141 cells is listed as “Yes”.

For the molecule Promethazine, the results for the IC50 in the assay with A549 cells [1] and in the assay on A549 cells [2] were above 10 µM and 5 to 10 µM, respectively. Besides, the Reduced side population result in the assay on CL141 cells is “No”.

Thioridazine: the Reduced side population entry in the assay on CL141 cells is given as “Yes”.
